Values quoted from earlier work in patent publication US20220356443A1, “PRODUCTION METHOD FOR CEREBRAL ORGANOID” (KEIO UNIVERSITY, priority 2019, published 2022).

System: deposits of amyloid β peptide
Conditions: relative to thioflavin-T; general statement on the staining reagent

SMILES: CNc1ccc(-c2nc3ccccc3s2)cc1 [BTA-1, 2-(4′-methylaminophenyl)benzothiazole]
- affinity to deposits of amyloid β peptide, higher than that of thioflavin-T: about 50 times
